# Reference: ChEMBL document CHEMBL2203128, “Antibacterial activity of substituted 5-methylbenzo[c]phenanthridinium derivatives” (2012)
# Legend:
# Type in all cases: functional
# [1] = system: Enterococcus faecalis; assay: Antimicrobial activity against vancomycin-resistant Enterococcus faecalis ATCC 51575 by CLSI protocol based broth microdilution method
# [2] = system: Staphylococcus aureus; assay: Antimicrobial activity against methicillin-resistant Staphylococcus aureus ATCC 33591 by CLSI protocol based broth microdilution method
# [3] = system: Enterococcus faecalis; assay: Antimicrobial activity against vancomycin-sensitive Enterococcus faecalis ATCC 19433 by CLSI protocol based broth microdilution method
# [4] = system: Staphylococcus aureus; assay: Antimicrobial activity against methicillin-sensitive Staphylococcus aureus 8325-4 by CLSI protocol based broth microdilution method
SMILES,MIC [1] [µg/mL],MIC [2] [µg/mL],MIC [3] [µg/mL],MIC [4] [µg/mL]
C[n+]1cc2c3c(ccc2c2ccc4cc5c(cc4c21)OCO5)OCO3.[Cl-] [SANGUINARIUM CHLORIDE],16,2,8,2
COc1cc2c(ccc3c4ccc(OC)c(OC)c4c[n+](C)c23)c(-c2ccc(N(C)C)cc2)c1OC.[Cl-],8,1,8,1
COc1cc2c(ccc3c4ccc5c(c4c[n+](C)c23)OCO5)c(-c2ccc(-c3ccccc3)cc2)c1OC.[Cl-],8,2,8,2
COc1cc(-c2c(OC)c(OC)cc3c2ccc2c4ccc(OC)c(OC)c4c[n+](C)c32)cc(OC)c1OC.[Cl-],32,4,32,4
COc1cc2c(ccc3c4ccc(OC)c(OC)c4c[n+](C)c23)c(-c2ccc(-c3ccccc3)cc2)c1OC.[Cl-],8,0.5,4,0.5
COc1cc2c(ccc3c4ccc(OC)c(OC)c4c[n+](C)c23)c(C2=CCCCC2)c1OC.[Cl-],32,4,16,2
COc1cc2c(ccc3c4ccc(OC)c(OC)c4c[n+](C)c23)c(-c2ccoc2)c1OC.[Cl-],16,1,16,1
COc1cc2c(-c3ccc(-c4ccccc4)cc3)cc3c4ccc(OC)c(OC)c4c[n+](C)c3c2cc1OC.[Cl-],16,0.5,16,0.5
CN[C@H](CC(C)C)C(=O)N[C@H]1C(=O)N[C@@H](CC(N)=O)C(=O)N[C@H]2C(=O)N[C@H]3C(=O)N[C@H](C(=O)N[C@H](C(=O)O)c4cc(O)cc(O)c4-c4cc3ccc4O)[C@H](O)c3ccc(c(Cl)c3)Oc3cc2cc(c3O[C@@H]2O[C@H](CO)[C@@H](O)[C@H](O)[C@H]2O[C@H]2C[C@](C)(N)[C@H](O)[C@H](C)O2)Oc2ccc(cc2Cl)[C@H]1O [VANCOMYCIN],> 64,–,1,–
CN(C)[C@@H]1C(O)=C(C(N)=O)C(=O)[C@@]2(O)C(O)=C3C(=O)c4c(O)cccc4[C@@](C)(O)[C@H]3C[C@@H]12 [TETRACYCLINE],> 64,64,0.5,0.06
COc1cc2c(ccc3c4ccc(OC)c(OC)c4c[n+](C)c23)c(C2CCCCC2)c1OC.[Cl-],8,2,8,1
COc1cc2ccc3c4ccc(OC)c(OC)c4c[n+](C)c3c2cc1OC.[Cl-],> 64,32,> 64,32
COc1cc2c(-c3ccc(-c4ccccc4)cc3)cc3c4ccc5c(c4c[n+](C)c3c2cc1OC)OCO5.[Cl-],8,2,4,2
CC[C@H]1OC(=O)[C@H](C)[C@@H](O[C@H]2C[C@@](C)(OC)[C@@H](O)[C@H](C)O2)[C@H](C)[C@@H](O[C@@H]2O[C@H](C)C[C@H](N(C)C)[C@H]2O)[C@](C)(O)C[C@@H](C)C(=O)[C@H](C)[C@@H](O)[C@]1(C)O [ERYTHROMYCIN],> 64,> 64,1,0.13
Cc1onc(-c2ccccc2)c1C(=O)N[C@@H]1C(=O)N2[C@@H]1SC(C)(C)[C@@H]2C(=O)O [OXACILLIN],> 64,> 64,8,0.06
COc1cc2c(ccc3c4ccc(OC)c(OC)c4c[n+](C)c23)c(-c2cccnc2)c1OC.[Cl-],32,32,32,8
C=Cc1c(OC)c(OC)cc2c1ccc1c3ccc(OC)c(OC)c3c[n+](C)c21.[Cl-],8,2,8,1
CCC[C@@H]1C[C@@H](C(=O)N[C@@H]([C@H]2O[C@H](SC)[C@H](O)[C@@H](O)[C@H]2O)[C@H](C)Cl)N(C)C1 [CLINDAMYCIN],> 64,> 64,2,0.03
COc1cc2c(ccc3c4ccc(OC)c(OC)c4c[n+](C)c23)c(C2CC2)c1OC.[Cl-],8,2,8,1
COc1cc2ccc3c4ccc5c(c4c[n+](C)c3c2cc1OC)OCO5.[Cl-],> 64,32,64,32
COc1cc2c(-c3ccccc3)cc3c4ccc(OC)c(OC)c4c[n+](C)c3c2cc1OC.[Cl-],16,2,8,1
COc1cc2c(ccc3c4ccc(OC)c(OC)c4c[n+](C)c23)c(-c2ccccc2)c1OC.[Cl-],4,1,4,1
COc1cc2c(ccc3c4ccc5c(c4c[n+](C)c23)OCO5)c(-c2ccccc2)c1OC.[Cl-],8,2,8,1
